Columns and labels:
SMMC-7721 SC2 cells = experiment: Matrigel invasion assay with short overlapping peptides of OPN-5kD; format: cell-based, human; conditions: 36 hours; for effect on OPN-5kD induced invasion, separate addition: in conjunction with OPN-5kD, 1:1 molar, 2 μM each; for cellular invasion relative to media alone treated cells: peptide alone, 2 μM, p<0.05
Text: A 44 residue peptide corresponding to the OPN-5kD fragment (SEQ ID NO: 4), was synthesized and purified >97% by HPLC (EZBiolabs, IN). A series of short peptides spanning the region of residues 167-210 of OPN (SEQ ID NO: 2) were generated as follows. Eight small overlapping peptides spanning the OPN-5kD peptide were similarly synthesized to >75% purity (p1=[…], amino acids 167-176 of SEQ ID NO: 2; p2=[…], amino acids 172-181 of SEQ ID NO: 2; p3=[…], amino acids 177-186 of SEQ ID NO: 2; p4=[…], amino acids 182-191 of SEQ ID NO: 2; p5=[…], amino acids 187-196 of SEQ ID NO: 2; p6=[…], amino acids 192-201 of SEQ ID NO: 2; p7=[…], amino acids 197-206 of SEQ ID NO: 2; and p8=[…] amino acids 202-210 of SEQ ID NO: 2) (EZBiolabs, IN). The lyophilized peptides were resuspended in PBS and applied with cells to the upper wells of Matrigel invasion chambers at equal molar concentrations (2 μM). Invading cells were measured after 36 hours following calcein incorporation as described in the examples above.

Human MMP-9 = biological target: T1, Human MMP-9 (Homo sapiens, UniProt P14780); experiment: OPN cleavage assay with MMP-9 and MMP inhibitors; format: biochemical; conditions: Western blot after 1-hour digestion at 37° C.; EDTA 10 mM, MMP-9 inhibitor I 2 μM, TIMP-1 0.1 μM
T1 construct: purchased Calbiochem, CA
Description: OPN cleavage assays were performed as follows. Human MMP-9 (Calbiochem, CA) was incubated at 37° C. for 3 hours with recombinant human OPN (R&D systems, MN) at an optimized ratio (5:1 substrate:enzyme) in a buffered solution (200 mM NaCl, 5 mM CaCl, 50 mM Tris-C1, pH 7.5). Digested OPN was analyzed by 16% tris-glycine SDS-PAGE followed by colloidal coomassie blue staining (SimplyBlue™, Invitrogen, CA). Separate cleavage reactions (2 μg OPN) were transferred to PDVF membranes for amino-end terminal microsequencing.
For western blot analysis, MMP-9-digested OPN samples and whole cell lysates (50 μg) were transferred to 0.22 um PVDF membranes and probed with a polyclonal antibody generated to a 14-residue peptide just downstream of the residue 169 thrombin cleavage site ([sequence]; amino acids 169-183 of SEQ ID NO: 2) (Abcam, MA). HEK-293 cell lysates were probed with an anti-FLAG antibody (Sigma, Mo.). Immuno-reactive proteins were detected by chemilluminescence (ECL, GE Healthcare Life Sciences, NJ).

SMMC-7721-SC2 cells [1] = experiment: Matrigel invasion assay (OPN constructs, blocking antibodies, OPN-5kD peptide); format: cell-based, human; conditions: 36 hours
Description: (§1) Migration and invasion assays were performed as follows. Transfected SMMC-7721-SC2 cells (transfected with 5 μg plasmid DNA) were allowed to recover in 5% serum containing media and were re-counted prior to dilution in serum-free media. Cells were seeded (5×10^4) into the upper chambers of Matrigel coated 8 um pore membranes (HTSTM Fluoroblok tumor invasion system, BD Biosciences, MA) or uncoated […] pore membranes (HTSTM Fluoroblok insert system, BD Biosciences, MA). Media containing serum (5%) was added to the lower chambers as a chemotactic agent. Blocking antibodies to either the integrin αVβ3 receptor (clone LM609, Chemicon, CA) or a common determinant of the CD44 receptors (clone A020, Calbiochem, CA) were added to the upper chambers (4 μg/ml) at the time of cell seeding. Migrated cells were labeled with calcein AM (Molecular Probes, OR) at 37° C. for 1 hour, and fluorescence was measured at 24, 36, and 48 hours (EX 490 nm, EM 530 nm).
Cell invasion was measured as described in Example 4. Briefly, each of the OPN vectors shown in FIG. 3A (5 μg) were separately transfected into SMMC-7721 cells (1×10^6) using optimized conditions (Nucleofection, AMAXA). […] After 36 hours, the invaded cells were labeled with calcein at 37° C. for 1 hour and fluorescence was measured (EX485, EM530).
To determine the effect of blocking antibodies to the integrin aV133 and CD44 receptors on the affect of invasion of HCC cells expression OPN full-length or OPN-5 kD, integrin αVβ3 (Chemicon, CA) or CD44 (Calbiochem, CA) blocking antibodies were added (4 μg/ml) to cells transiently expressing OPN full-length and OPN-5kD. Invading cells were measured at 36 hours following calcein incorporation as described above.
To determine the effect of varying concentrations of the OPN-5kD peptide on invasion of HCC cells, SMMC-7721 cells were exposed to increasing concentrations of the OPN-5kD peptide (0.4 μM, 1 μM and 2 μM) and invading cells were measured after 36 hours following calcein incorporation as described above. […]

SMMC-7721-SC2 cells [2] = experiment: Adhesion of cells transfected with OPN expression constructs; format: cell-based, human; conditions: 30-60 minutes
Description: To determine the affect of OPN fragments on adhesion, the following methods were used. SMMC-7721-SC2 cells (1×10^6) were trypsinized (E-PET, Biosource, CA) and transfected with the four OPN expression constructs shown in FIG. 3A and empty vector DNA (5 μg) (50-60% efficiency) using optimized conditions (Nucleofection, AMAXA, MD) and plated to 6-well plates. After a 24-hour recovery period, the cells were trypsinized and seeded by equal numbers (6×10^4) into fluorescent-read 96-well plates in serum-free media. Non-adherent cells were removed with a PBS wash after 2-60 minutes and fluorescence was quantified at EX485, EM530.

SMMC-7721-SC2 cells [3] = experiment: Migration assay of cells transfected with OPN constructs; format: cell-based, human; conditions: vector controls, 24, 36, 48 hours
Description: as §1

SMMC-7721-SC2 cells [4] = experiment: Cellular adhesion with exogenous intact or MMP-9 cleaved OPN; format: cell-based, human; conditions: GRGDS peptide 400 μM; OPN 250 nM
Description: Cellular adhesion was measured using the following methods. SMMC-7721-SC2 cells were seeded into the wells of a 96-well fluorescent-read plate in serum-free media (6×10^4 cells/well) with human OPN (0-250 nM) with or without prior digestion by MMP-9. Media and MMP-9 alone treated cells were included as controls. A GRGDS blocking peptide (400 μM) was added to separate media control, intact OPN, and MMP-9 cleaved OPN (250 nM) conditions. Non-adherent cells were removed with a PBS wash (100 μl) after one hour and adherent cells were quantified by CyQuant GR dye incorporation (Molecular Probes, OR) and detection at EX485, EM530.

T1 sequence (P14780 94-707): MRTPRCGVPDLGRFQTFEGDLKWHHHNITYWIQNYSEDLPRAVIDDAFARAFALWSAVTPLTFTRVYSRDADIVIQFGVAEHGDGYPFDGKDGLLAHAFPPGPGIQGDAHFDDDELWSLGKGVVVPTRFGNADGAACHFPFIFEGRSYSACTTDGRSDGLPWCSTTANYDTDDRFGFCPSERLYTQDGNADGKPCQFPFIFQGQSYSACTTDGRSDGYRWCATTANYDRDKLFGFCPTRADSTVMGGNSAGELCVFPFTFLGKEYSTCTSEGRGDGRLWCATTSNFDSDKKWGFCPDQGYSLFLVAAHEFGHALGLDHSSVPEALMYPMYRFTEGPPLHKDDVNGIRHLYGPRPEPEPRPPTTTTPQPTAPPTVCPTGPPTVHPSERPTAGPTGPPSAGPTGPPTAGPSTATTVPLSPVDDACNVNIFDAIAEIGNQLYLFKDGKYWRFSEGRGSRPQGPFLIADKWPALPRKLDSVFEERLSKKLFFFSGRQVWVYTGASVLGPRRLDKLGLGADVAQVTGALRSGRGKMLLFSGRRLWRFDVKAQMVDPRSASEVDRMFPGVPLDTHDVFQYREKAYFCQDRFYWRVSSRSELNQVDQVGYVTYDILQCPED

| Molecule | effect on OPN-5kD induced invasion, separate addition (SMMC-7721 SC2 cells) | cellular invasion relative to media alone treated cells (SMMC-7721 SC2 cells) | adhesion after transient over-expression relative to controls, later time points (SMMC-7721-SC2 cells [2]) | SMMC-7721-SC2 migration relative to controls (SMMC-7721-SC2 cells [3]) | other results |
| --- | --- | --- | --- | --- | --- |
| KKFRRPDIQY (listed as Homo sapiens) [p2] | insignificant effect |  |  |  |  |
| ELNGAYKAIP (listed as Homo sapiens) [p7] | partial reduction in invasion | suppressive effect |  |  |  |
| PDIQYPDATD (listed as Homo sapiens) [p3] | partial reduction in invasion | suppressive effect |  |  |  |
| O=C(O)CN(CCN(CC(=O)O)CC(=O)O)CC(=O)O [EDTA] |  |  |  |  | inhibition of MMP-9 cleavage of OPN (OPN-5kD fragment detection) (Human MMP-9): partially inhibited |
| OPN-5kD: MMP-9 cleavage fragment of OPN, residues 167-210; expressed from FLAG-tagged construct |  |  | decreased adhesion | decreased migration | increase in cellular invasion (SMMC-7721-SC2 cells [1]; transfected cells, p=0.001): > 2 fold |
| GRGDS [GRGDS peptide] |  |  |  |  | blocking of intact and cleaved OPN-mediated adhesion (SMMC-7721-SC2 cells [4]): blocked both intact and cleaved OPN-mediated adhesion |
| full-length OPN: wild-type osteopontin protein (OPN-a) expressed from FLAG-tagged construct |  |  | increased adhesion | induced SMMC-7721-SC2 migration | cellular invasion compared to vector transfected cells (SMMC-7721-SC2 cells [1]): slightly increased invasion |
| HMESEELNGA (listed as Homo sapiens) [p6] | partial reduction in invasion | suppressive effect |  |  |  |
| OPN-24 kD: OPN fragment residues 211-314; expressed from FLAG-tagged construct |  |  | decreased adhesion | decreased migration | cellular invasion compared to vector transfected cells (SMMC-7721-SC2 cells [1]): No significant difference |

— patent publication US8247183B2, “Compositions and methods for diagnosis and treatment of tumors” (The United States of America, as represented by the …, priority 2006, dated 2012)
